From PMC9730482 (ACS Omega, 2022)

Target: α-glucosidase (Saccharomyces cerevisiae, UniProt P38158)
Experiment: In vitro α-glucosidase inhibition assay
Assay type: biochemical, S. cerevisiae
Settings: for inhibition at 500 µM: read-out: percent inhibition (0.5 mM)

α-glucosidase, sequence (P38158 whole entry): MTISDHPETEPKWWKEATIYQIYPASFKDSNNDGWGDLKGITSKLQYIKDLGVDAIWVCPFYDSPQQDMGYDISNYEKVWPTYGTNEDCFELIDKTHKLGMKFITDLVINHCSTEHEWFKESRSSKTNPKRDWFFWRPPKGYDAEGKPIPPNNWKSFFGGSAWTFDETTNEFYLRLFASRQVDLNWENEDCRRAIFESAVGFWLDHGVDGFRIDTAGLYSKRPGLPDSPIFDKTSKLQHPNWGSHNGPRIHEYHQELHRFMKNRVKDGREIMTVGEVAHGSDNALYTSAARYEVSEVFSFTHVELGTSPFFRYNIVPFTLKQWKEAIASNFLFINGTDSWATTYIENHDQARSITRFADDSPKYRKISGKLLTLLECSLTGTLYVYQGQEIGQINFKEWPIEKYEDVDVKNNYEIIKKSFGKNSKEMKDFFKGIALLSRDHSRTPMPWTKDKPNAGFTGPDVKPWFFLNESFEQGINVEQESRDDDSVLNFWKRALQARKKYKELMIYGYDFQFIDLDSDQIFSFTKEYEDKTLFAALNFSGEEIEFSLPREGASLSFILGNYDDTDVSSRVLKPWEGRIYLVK

Compound | IC50 [µM] | inhibition at 500 µM [%]
Oc1ccc(C=Nc2ccc3[nH]c(S)nc3c2)cc1 [7a, 4-(((2-Mercapto-1H-benzo[d]imidazol-5-yl)imino)methyl)phenol] | 11.8 ± 0.26 | 95.7
Sc1nc2cc(N=Cc3ccc(Cl)cc3)ccc2[nH]1 [7b, 5-((4-Chlorobenzylidene)amino)-1H-benzo[d]imidazole-2-thiol] | 27.3 ± 0.3 | 93.2
O=[N+]([O-])c1ccc(C=Nc2ccc3[nH]c(S)nc3c2)cc1 [7c, 5-((4-Nitrobenzylidene)amino)-1H-benzo[d]imidazole-2-thiol] | 9.84 ± 0.08 | 95.7
CCN(CC)c1ccc(C=Nc2ccc3[nH]c(S)nc3c2)cc1 [7d, 5-((4-(Diethylamino)benzylidene)amino)-1H-benzo[d]imidazole-2-thiol] | 5.34 ± 0.16 | 96.6
COc1cccc(C=Nc2ccc3[nH]c(S)nc3c2)c1O [7e, 2-(((2-Mercapto-1H-benzo[d]imidazol-5-yl)imino)methyl)-6-methoxyphenol] | 16.4 ± 0.53 | 91.3
COc1ccc(C=Nc2ccc3[nH]c(S)nc3c2)c(OC)c1 [7f, 5-((2,4-Dimethoxybenzylidene)amino)-1H-benzo[d]imidazole-2-thiol] | 6.46 ± 0.3 | 95

The remaining lines, values ahead:

IC50 [µM] | inhibition at 500 µM [%] | Compound
20.7 ± 0.59 | 91.7 | COc1ccc(C=Nc2ccc3[nH]c(S)nc3c2)cc1OC [7h, 5-((3,4-Dimethoxybenzylidene)amino)-1H-benzo[d]imidazole-2-thiol]
0.64 ± 0.05 | 95.4 | Oc1ccc(C=Nc2ccc3[nH]c(S)nc3c2)c(O)c1 [7i, 4-(((2-Mercapto-1H-benzo[d]imidazol-5-yl)Imino)methyl)benzene-1,3-diol]
18.7 ± 0.74 | 94.7 | COc1cc(C=Nc2ccc3[nH]c(S)nc3c2)cc(OC)c1OC [7j, 5-((3,4,5-Trimethoxybenzylidene)amino)-1H-benzo[d]imidazole-2-thiol]
70.3 ± 1.52 | 87.6 | Sc1nc2cc(N=Cc3cccs3)ccc2[nH]1 [7k, 5-((Thiophen-2-ylmethylene)amino)-1H-benzo[d]imidazole-2-thiol]
343.1 ± 1.62 | 83.2 | COc1ccccc1C=Nc1ccc2[nH]c(S)nc2c1 [7l, 5-((2-Methoxybenzylidene)amino)-1H-benzo[d]imidazole-2-thiol]
11.1 ± 0.79 | 94 | Cc1ccc(C=Nc2ccc3[nH]c(S)nc3c2)cc1 [7m, 5-((4-Methylbenzylidene)amino)-1H-benzo[d]imidazole-2-thiol]
 | 58.5 | C[C@H]1O[C@H](O[C@H]2[C@H](O)[C@@H](O)[C@@H](O[C@H]3[C@H](O)[C@@H](O)C(O)O[C@@H]3CO)O[C@@H]2CO)[C@H](O)[C@@H](O)[C@@H]1N[C@H]1C=C(CO)[C@@H](O)[C@H](O)[C@H]1O (stereo partly shown) [acarbose, reference compound]
